Patent US12358886B2, “Heterocyclic compounds for use in the treatment of cancer” (Artios Pharma Limited, priority 2019, dated 2025)
pIC50: −log10 of the molar value. Like-named read-outs stand apart in the source and are kept apart here.

Target: Polθ protein (amino acids 2-2590) (Homo sapiens, UniProt O75417)
Experiment: Polθ full length enzyme potency assay (PicoGreen)
Settings: full length N-His, C-term FLAG tagged Polθ, PicoGreen fluorescence, 12 point concentration response; for IC50: Polθ IC50 (nM); for pIC50: read-out: Polθ IC50

Polθ protein (amino acids 2-2590), sequence (O75417 2-2590): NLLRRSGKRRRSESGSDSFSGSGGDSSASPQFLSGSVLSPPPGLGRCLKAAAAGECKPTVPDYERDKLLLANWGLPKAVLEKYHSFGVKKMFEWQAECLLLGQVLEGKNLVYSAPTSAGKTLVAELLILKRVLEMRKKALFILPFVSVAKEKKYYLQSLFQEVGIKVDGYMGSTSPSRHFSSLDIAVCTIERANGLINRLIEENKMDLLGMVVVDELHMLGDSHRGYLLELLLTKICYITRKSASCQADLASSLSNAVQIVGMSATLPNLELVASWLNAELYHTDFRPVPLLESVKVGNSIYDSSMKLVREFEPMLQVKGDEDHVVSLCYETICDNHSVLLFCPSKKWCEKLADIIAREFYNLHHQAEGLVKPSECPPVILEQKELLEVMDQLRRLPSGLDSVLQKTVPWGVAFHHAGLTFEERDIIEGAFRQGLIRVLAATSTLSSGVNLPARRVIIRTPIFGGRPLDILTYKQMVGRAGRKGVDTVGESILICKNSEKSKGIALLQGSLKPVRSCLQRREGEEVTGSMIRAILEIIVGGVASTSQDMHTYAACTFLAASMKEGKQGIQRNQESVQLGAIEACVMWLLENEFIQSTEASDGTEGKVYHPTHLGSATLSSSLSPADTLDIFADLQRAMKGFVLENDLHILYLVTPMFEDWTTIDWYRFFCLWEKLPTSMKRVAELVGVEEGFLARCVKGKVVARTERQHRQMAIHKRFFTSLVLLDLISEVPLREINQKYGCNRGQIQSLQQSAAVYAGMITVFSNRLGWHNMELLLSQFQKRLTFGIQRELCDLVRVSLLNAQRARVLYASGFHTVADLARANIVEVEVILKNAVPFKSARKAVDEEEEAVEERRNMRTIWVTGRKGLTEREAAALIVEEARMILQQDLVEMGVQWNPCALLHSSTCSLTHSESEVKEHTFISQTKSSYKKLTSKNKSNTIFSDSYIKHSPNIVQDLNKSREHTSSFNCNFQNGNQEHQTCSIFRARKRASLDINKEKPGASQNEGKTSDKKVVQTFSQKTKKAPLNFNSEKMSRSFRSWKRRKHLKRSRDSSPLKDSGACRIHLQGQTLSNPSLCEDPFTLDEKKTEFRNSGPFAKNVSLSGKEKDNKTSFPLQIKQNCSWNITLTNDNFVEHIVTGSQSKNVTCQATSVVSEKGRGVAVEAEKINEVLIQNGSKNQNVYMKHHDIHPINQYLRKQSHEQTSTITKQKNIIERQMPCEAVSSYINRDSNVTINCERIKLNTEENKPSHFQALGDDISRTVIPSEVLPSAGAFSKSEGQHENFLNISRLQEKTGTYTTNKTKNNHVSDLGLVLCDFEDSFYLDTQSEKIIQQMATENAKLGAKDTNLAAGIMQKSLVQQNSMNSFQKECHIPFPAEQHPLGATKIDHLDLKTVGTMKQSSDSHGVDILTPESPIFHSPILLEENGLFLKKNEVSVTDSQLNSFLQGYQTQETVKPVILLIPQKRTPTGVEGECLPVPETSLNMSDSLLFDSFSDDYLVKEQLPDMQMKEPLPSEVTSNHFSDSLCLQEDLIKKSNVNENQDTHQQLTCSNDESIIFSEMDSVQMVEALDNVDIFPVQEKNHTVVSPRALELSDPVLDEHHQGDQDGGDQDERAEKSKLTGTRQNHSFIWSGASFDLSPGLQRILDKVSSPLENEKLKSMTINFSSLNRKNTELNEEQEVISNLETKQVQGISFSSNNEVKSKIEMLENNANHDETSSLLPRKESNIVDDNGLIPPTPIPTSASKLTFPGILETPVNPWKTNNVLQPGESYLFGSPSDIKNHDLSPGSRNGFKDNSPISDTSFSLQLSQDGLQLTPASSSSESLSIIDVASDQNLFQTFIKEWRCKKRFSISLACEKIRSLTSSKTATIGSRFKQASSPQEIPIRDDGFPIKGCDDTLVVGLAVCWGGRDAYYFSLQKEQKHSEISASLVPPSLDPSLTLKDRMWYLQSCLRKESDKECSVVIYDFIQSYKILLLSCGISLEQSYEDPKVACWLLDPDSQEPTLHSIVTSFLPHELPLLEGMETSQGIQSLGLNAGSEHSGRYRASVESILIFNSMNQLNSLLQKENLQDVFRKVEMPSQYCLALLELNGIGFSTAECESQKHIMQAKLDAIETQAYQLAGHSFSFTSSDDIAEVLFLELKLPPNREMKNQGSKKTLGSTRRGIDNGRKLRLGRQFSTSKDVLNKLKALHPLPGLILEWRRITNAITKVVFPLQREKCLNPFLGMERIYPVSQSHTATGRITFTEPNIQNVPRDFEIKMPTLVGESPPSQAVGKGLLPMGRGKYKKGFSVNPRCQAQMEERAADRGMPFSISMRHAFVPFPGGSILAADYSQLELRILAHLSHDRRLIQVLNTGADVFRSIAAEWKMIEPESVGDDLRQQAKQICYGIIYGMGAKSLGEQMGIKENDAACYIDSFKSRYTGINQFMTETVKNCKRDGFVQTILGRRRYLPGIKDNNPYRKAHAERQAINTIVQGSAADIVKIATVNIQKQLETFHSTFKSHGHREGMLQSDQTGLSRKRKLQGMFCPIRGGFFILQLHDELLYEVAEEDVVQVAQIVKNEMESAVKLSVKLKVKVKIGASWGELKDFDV

SMILES | IC50 [nM] | pIC50
Cc1cc(C(F)(F)F)c(C#N)c(N2CCC[C@H]2C(=O)N(C)c2ccccc2)n1 [Example 1, (S)-1-(3-Cyano-6-methyl-4-(trifluoromethyl)pyridin-2-yl)-N-methyl-N-phenylpyrrolidine-2-carboxamide] | 72 | –
COc1cc(C(F)(F)F)c(C#N)c(N2C[C@@H](O)C[C@H]2C(=O)N(C)c2cccc(C)c2)n1 [Example 30, (2S,4S)-1-(3-Cyano-6-methoxy-4-(trifluoromethyl)pyridin-2-yl)-4-hydroxy-N-methyl-N-(m-tolyl)pyrrolidine-2-carboxamide] | 514 | –
Cc1cc(C(C)C(F)(F)F)cc(N2C(=O)OC[C@H]2C(=O)N(C)c2ccc(F)c(Cl)c2)n1 (stereo partly drawn) [Example 124, (4S)—N-(3-Chloro-4-fluorophenyl)-N-methyl-3-(6-methyl-4-(1,1,1-trifiuoropropan-2-yl)pyridin-2-yl)-2-oxooxazolidine-4-carboxamide] | 304 | –
Cc1cc(C(F)(F)F)cc(N2C(=O)OC[C@H]2C(=O)N(C)c2ccc3c(c2)COC3)n1 [Example 102, (S)-N-(1,3-Dihydroisobenzofuran-5-yl)-N-methyl-3-(6-methyl-4-(trifluoromethyl)pyridin-2-yl)-2-oxooxazolidine-4-carboxamide] | 86 | –
CCN(C(=O)[C@H]1C[C@@H](NCCS(C)(=O)=O)CN1c1nc(C)cc(C)c1C#N)c1cccc(C)c1 (stereo in doubt) [Example 45, (2R,4R)-1-(3-Cyano-4,6-dimethylpyridin-2-yl)-N-ethyl-4-((2-(methylsulfonyl)ethyl)-amino)-N-(m-tolyl)pyrrolidine-2-carboxamide] | 85 | –
C=Cc1ccc(N(C)C(=O)[C@@H]2COC(=O)N2c2cc(C(F)(F)F)cc(C)n2)c(F)c1 [Example 111, (S)—N-(2-Fluoro-4-vinylphenyl)-N-methyl-3-(6-methyl-4-(trifluoromethyl)pyridin-2-yl)-2-oxooxazolidine-4-carboxamide] | 18 | –
Cc1cc(C(F)(F)F)cc(N2C(=O)OC[C@H]2C(=O)N(C)c2cccc(Cl)c2)n1 [Example 87, (S)-N-(3-Chlorophenyl)-N-methyl-3-(6-methyl-4-(trifluoromethyl)pyridin-2-yl)-2-oxooxazolidine-4-carboxamide] | – | 7.82
Cc1cc(C)c(C#N)c(N2C[C@@H](O)C[C@H]2C(=O)N(C)c2ccccc2)n1 [Example 7, (2S,4S)-1-(3-Cyano-4,6-dimethylpyridin-2-yl)-4-hydroxy-N-methyl-N-phenylpyrrolidine-2-carboxamide] | 438 | –
Cc1cc(C(F)(F)F)cc(N2C(=O)[C@H](CN(C)C)C[C@@H]2C(=O)N(C)c2ccc(F)c(Cl)c2)n1 (stereo in doubt) [Example 78, (2R,4S)—N-(3-Chloro-4-fluorophenyl)-4-((dimethylamino)methyl)-N-methyl-1-(6-methyl-4-(trifluoromethyl)pyridin-2-yl)-5-oxopyrrolidine-2-carboxamide] | 48 | –
CCN(C(=O)[C@@H]1C[C@H](N(C)[C@@H]2CCOC[C@H]2O)CN1c1cc(C(F)(F)F)cc(C)n1)c1ccc(F)c(F)c1 [Example 139, (2S,4S)—N-(3,4-Difluorophenyl)-N-ethyl-4-(((3S,4R)-3-hydroxytetrahydro-2H-pyran-4-yl)(methyl)amino)-1-(6-methyl-4-(trifluoromethyl)pyridin-2-yl)pyrrolidine-2-carboxamide] | 164 | –
Cc1cc(C(F)(F)F)cc(N2C(=O)OC[C@H]2C(=O)N(C)c2cc(Cl)c(F)cc2F)n1 [Example 98, (S)-N-(5-Chloro-2,4-difluorophenyl)-N-methyl-3-(6-methyl-4-(trifluoromethyl)pyridin-2-yl)-2-oxooxazolidine-4-carboxamide] | – | 7.49
CCN(C(=O)[C@@H]1C[C@H](NC2COC2)CN1c1cc(C(F)(F)F)cc(C)n1)c1ccc(F)c(F)c1 [Example 138, (2S,4S)-N-(3,4-Difluorophenyl)-N-ethyl-1-(6-methyl-4-(trifluoromethyl)pyridin-2-yl)-4-(oxetan-3-ylamino)pyrrolidine-2-carboxamide] | 165 | –
Cc1cc(C(F)(F)F)c(C#N)c(N2C[C@@H](O)C[C@H]2C(=O)N(C)c2cc(F)cc(F)c2)n1 [Example 17, (2S,4S)-1-(3-Cyano-6-methyl-4-(trifluoromethyl)pyridin-2-yl)-N-(3,5-difluorophenyl)-4-hydroxy-N-methylpyrrolidine-2-carboxamide] | 97 | –
Cc1cc(C(F)(F)F)cc(N2C(=O)[C@@H](CO)C[C@H]2C(=O)N(C)c2ccc(F)c(Cl)c2)n1 [Example 77, (2S,4R)—N-(3-Chloro-4-fluorophenyl)-4-(hydroxymethyl)-N-methyl-1-(6-methyl-4-(trifluoromethyl)pyridin-2-yl)-5-oxopyrrolidine-2-carboxamide] | 11 | –
CCN(C(=O)[C@@H]1C[C@H](N(C)[C@@H]2CCC[C@H]2O)CN1c1cc(C(F)(F)F)cc(C)n1)c1ccc(F)c(F)c1 [Example 141, (2S,4S)-N-(3,4-Difluorophenyl)-N-ethyl-4-(((1R,2R)-2-hydroxycyclopentyl)(methyl)amino)-1-(6-methyl-4-(trifluoromethyl)pyridin-2-yl)pyrrolidine-2-carboxamide] | 56 | –
Cc1cccc(N(C)C(=O)[C@@H]2[C@@H](O)CCN2c2nc(C)cc(C(F)(F)F)c2C#N)c1 [Example 26, (2S,3S)-1-(3-Cyano-6-methyl-4-(trifluoromethyl)pyridin-2-yl)-3-hydroxy-N-methyl-N-(m-tolyl)pyrrolidine-2-carboxamide] | – | 7.21
CCN(C(=O)[C@@H]1C[C@H](NC2CNC2)CN1c1nc(C)cc(C)c1C#N)c1cccc(C)c1 [Example 51, (2S,4S)-4-(Azetidin-3-ylamino)-1-(3-cyano-4,6-dimethylpyridin-2-yl)-N-ethyl-N-(m-tolyl)pyrrolidine-2-carboxamide] | 1560 | –
Cc1cc(C(F)(F)F)cc(N2C(=O)OC[C@H]2C(=O)N(C)c2cc(Cl)ccc2F)n1 [Example 96, (S)-N-(5-Chloro-2-fluorophenyl)-N-methyl-3-(6-methyl-4-(trifluoromethyl)pyridin-2-yl)-2-oxooxazolidine-4-carboxamide] | – | 7.62

The remaining lines, values ahead:

IC50 [nM] | pIC50 | SMILES
5 | – | Cc1cc(C(F)(F)F)cc(N2C(=O)N(CCN3CCC(C#N)CC3)C[C@H]2C(=O)N(C)c2ccc(F)c(Cl)c2F)n1 [Example 211, (S)-N-(3-Chloro-2,4-difluorophenyl)-1-(2-(4-cyanopiperidin-1-yl)ethyl)-N-methyl-3-(6-methyl-4-(trifluoromethyl)pyridin-2-yl)-2-oxoimidazolidine-4-carboxamide]
519 | – | Cc1cc(C(F)(F)F)cc(N2C(=O)OC[C@H]2C(=O)N(C)c2cccc(N)n2)n1 [Example 175, (S)—N-(6-Aminopyridin-2-yl)-N-methyl-3-(6-methyl-4-(trifluoromethyl)pyridin-2-yl)-2-oxooxazolidine-4-carboxamide]
109 | – | Cc1cc(C(F)(F)F)cc(N2C(=O)OC[C@H]2C(=O)N(C)c2cccc(N(C)C)n2)n1 [Example 177, (S)—N-(6-(Dimethylamino)pyridin-2-yl)-N-methyl-3-(6-methyl-4-(trifluoromethyl)pyridin-2-yl)-2-oxooxazolidine-4-carboxamide]
74 | – | Cc1cc(C(F)(F)F)c(C#N)c(N2CCC[C@H]2C(=O)N(C)c2ccc3c(n2)N(C)CCO3)n1 [Example 245, (S)-1-(3-Cyano-6-methyl-4-(trifluoromethyl)pyridin-2-yl)-N-methyl-N-(4-methyl-3,4-dihydro-2H-pyrido[3,2-b][1,4]oxazin-6-yl)pyrrolidine-2-carboxamide]
6 | – | Cc1cc(C(F)(F)F)cc(N2C(=O)N(CCOS(N)(=O)=O)C[C@H]2C(=O)N(C)c2ccc(F)c(Cl)c2F)n1 [Example 227, (S)-2-(4-((3-Chloro-2,4-difluorophenyl)(methyl)carbamoyl)-3-(6-methyl-4-(trifluoromethyl)pyridin-2-yl)-2-oxoimidazolidin-1-yll sulfamate]
178 | – | Cc1cc(C(F)(F)F)cc(N2C(=O)N(S(C)(=O)=O)C[C@H]2C(=O)N(C)c2ccc(F)c(Cl)c2)n1 [Example 159, (S)—N-(3-Chloro-4-fluorophenyl)-N-methyl-3-(6-methyl-4-(trifluoromethyl)pyridin-2-yl)-1-(methylsulfonyl)-2-oxoimidazolidine-4-carboxamide]
32 | – | CCN(C(=O)[C@@H]1CNC(=O)N1c1cc(C(F)(F)F)cc(C)n1)c1ccc(F)c(Cl)c1 [Example 157, (S)—N-(3-Chloro-4-fluorophenyl)-N-ethyl-3-(6-methyl-4-(trifluoromethyl)pyridin-2-yl)-2-oxoimidazolidine-4-carboxamide]
12 | – | Cc1cc(C(F)(F)F)cc(N2C(=O)N(CCN3CCC3)C[C@H]2C(=O)N(C)c2ccc(F)c(Cl)c2)n1 [Example 200, (S)-1-(2-(Azetidin-1-yl)ethyl)-N-(3-chloro-4-fluorophenyl)-N-methyl-3-(6-methyl-4-(trifluoromethyl)pyridin-2-yl)-2-oxoimidazolidine-4-carboxamide]
7 | – | Cc1cc(C(F)(F)F)cc(N2C(=O)NC[C@H]2C(=O)N(C)c2ccc3c(Cl)c[nH]c3n2)n1 [Example 240, (S)—N-(3-Chloro-1H-pyrrolo[2,3-b]pyridin-6-yl)-N-methyl-3-(6-methyl-4-(trifluoromethyl)pyridin-2-yl)-2-oxoimidazolidine-4-carboxamide]
27 | – | Cc1cc(C(F)(F)F)cc(N2C(=O)NC[C@H]2C(=O)N(C)c2ccc3cnn(C)c3c2)n1 [Example 235, (S)—N-Methyl-N-(1-methyl-1H-indazol-6-yl)-3-(6-methyl-4-(trifluoromethyl)pyridin-2-yl)-2-oxoimidazolidine-4-carboxamide]
23 | – | Cc1cc(C(F)(F)F)c(C#N)c(N2C[C@@H](N3CCOC(CO)C3)C[C@H]2C(=O)N(C)c2ccc(F)c(Cl)c2)n1 (stereo partly drawn) [Example 151, (2S,4S)-N-(3-Chloro-4-fluorophenyl)-1-(3-cyano-6-methyl-4-(trifluoromethyl)pyridin-2-yl)-4-(2-(hydroxymethyl)morpholino)-N-methylpyrrolidine-2-carboxamide]
